These results are taken from patent EP3575310A1, “PHOSPHONATE DERIVATES OF BETULIN COMPOUNDS WITH ANTIVIRAL ACTIVITY, METHOD FOR THEIR PREPARATION AND THEIR APPLICATION” (Uniwersystet Slaski w Katowicach, priority 2018, dated 2019).

Read-outs that look alike come from different tables or passages of the source.

A short description of data set [1]: Cytotoxicity in lymphoid CEMT4 cell cultures, MTT method. Format: cell-based. The note with it: human, CEMT4 cells, viability relative to control cultures. The protocol:
Biological testing of compounds is based on the determination of their cytotoxicity, including determination of CC50 and CC90 (Cytotoxity Concentration) and the assessment of the ability to inhibit viral replication in cell cultures and the determination of IC50 and IC90 (Inhibitory Concentration). Cytotoxicity of compounds is assessed in cultures of established lymphoid CEMT4 cell lines using the MTT method. […] The cultures are run in triplicate for every concentration of the tested compounds. HIV replication inhibition by the studied compounds is assessed in cultures of established lymphoid CEMT4 cell lines. Cells are incubated for 24 hours in a medium (RPMI 10% FBS) supplemented with known concentrations of the tested preparations. The cells are then infected with a laboratory isolate of HIV-1 (wild type, S1). The cultures are prepared in triplicate for every concentration of the tested compound. Cultures containing identical number of infected cells grown in a medium not containing the tested substances are used as a positive control (100% viral replication). HIV inhibiting ability is determined after 7 days of growing the culture by determining the viral p24 protein in the medium above the cells. The amount of the protein corresponds to the number of newly synthesized viruses. Inhibition of replication is measured by reducing the amount of p24 protein in cultures enriched in test compounds with respect to the amount of p24 in a culture carried out in a standard medium. The amount of p24 viral protein is determined using an anti-p24 immunoenzymatic test. The results are presented in the form of CC50, IC50 and TI (Therapeutic Index) values. Table 1. Results of determination of anti-HIV activity of synthesized compounds and of the reference compound, AZT
In general terms: Tetrazolium dyes change colour on reduction, which living cells bring about.

Data set [2] concerns HIV-1. The note with it: cited from earlier work.
For data set [3], the system named is HIV-1 (wild type, S1). Briefly: microbe, parasite or virus in culture. Format: cell-based.
Experimental: Biological testing of compounds is based on the determination of their cytotoxicity, including determination of CC50 and CC90 (Cytotoxity Concentration) and the assessment of the ability to inhibit viral replication in cell cultures and the determination of IC50 and IC90 (Inhibitory Concentration). Cytotoxicity of compounds is assessed in cultures of established lymphoid CEMT4 cell lines using the MTT method. […] The cultures are run in triplicate for every concentration of the tested compounds. HIV replication inhibition by the studied compounds is assessed in cultures of established lymphoid CEMT4 cell lines. Cells are incubated for 24 hours in a medium (RPMI 10% FBS) supplemented with known concentrations of the tested preparations. The cells are then infected with a laboratory isolate of HIV-1 (wild type, S1). The cultures are prepared in triplicate for every concentration of the tested compound. […] HIV inhibiting ability is determined after 7 days of growing the culture by determining the viral p24 protein in the medium above the cells. […] Inhibition of replication is measured by reducing the amount of p24 protein in cultures enriched in test compounds with respect to the amount of p24 in a culture carried out in a standard medium. The amount of p24 viral protein is determined using an anti-p24 immunoenzymatic test. […]
Data set [4] concerns HIV-1. The note with it: inhibiting the HIV-1 replication; cited from earlier work.
Data set [5] concerns HIV. The settings on record: cited from earlier work.
Data set [6] concerns HIV-1 infected H9 lymphocytes. The note with it: cited from earlier work.

In general, CC50 refers to the concentration at which the toxic effect on the cells reaches its halfway point. Broadly, the IC50 is the concentration at which inhibition is half-maximal. Usually EC50 stands for the concentration needed to bring the measured effect to its halfway point.

`C=C(CP(=O)(OCC)OCC)[C@@H]1CC[C@]2(C(=O)O)CC[C@]3(C)[C@H](CC[C@@H]4[C@@]5(C)CC[C@H](OC(=O)CCC(C)(C)C(=O)O)C(C)(C)[C@@H]5CC[C@]43C)[C@@H]12` [Item 6] showed a CC50 in data set [1] above 68 µM.

Take `Cc1cn([C@H]2C[C@H](N=[N+]=[N-])[C@@H](CO)O2)c(=O)[nH]c1=O` [Item 12]: in data set [1], the CC50 was above 280 µM. Turning to `C=C(C)[C@@H]1CC[C@]2(C(=O)O)CC[C@]3(C)[C@H](CC[C@@H]4[C@@]5(C)CCC(=O)C(C)(C)[C@@H]5CC[C@]43C)[C@@H]12` [betulonic acid], the “activity against HIV-1” value in data set [2] is given as “weak activity”. On to `CCOP(=O)(C=C(C)[C@@H]1CC[C@]2(C(=O)O)CC[C@]3(C)[C@H](CC[C@@H]4[C@@]5(C)CC[C@H](OC(=O)CCC(C)(C)C(=O)O)C(C)(C)[C@@H]5CC[C@]43C)[C@@H]12)OCC` [Item 10], for which the cytotoxic concentration (CC50) in data set [1] is above 68 µM. In the case of `C=C(C)[C@@H]1CC[C@]2(CO)CC[C@]3(C)[C@H](CC[C@@H]4[C@@]5(C)CC[C@H](O)C(C)(C)[C@@H]5CC[C@]43C)[C@@H]12` [Item 1], the IC50 entry in data set [3] is given as “NO”. Regarding `C=C(CP(=O)(OCC)OCC)[C@@H]1CC[C@]2(C(=O)O)CC[C@]3(C)[C@H](CC[C@@H]4[C@@]5(C)CC[C@H](OC(=O)CC(C)(C)C(=O)O)C(C)(C)[C@@H]5CC[C@]43C)[C@@H]12` [Item 5], the CC50 in data set [1] is above 69 µM. In the case of `CCOP(=O)(C=C(C)[C@@H]1CC[C@]2(C(=O)O)CC[C@]3(C)[C@H](CC[C@@H]4[C@@]5(C)CC[C@H](OC(=O)CC(C)(C)CC(=O)O)C(C)(C)[C@@H]5CC[C@]43C)[C@@H]12)OCC` [Item 11], the CC50 in data set [1] is above 68 µM. Still for that read-out and setting: the figure for `C=C(CP(=O)(OCC)OCC)[C@@H]1CC[C@]2(C(=O)O)CC[C@]3(C)[C@H](CC[C@@H]4[C@@]5(C)CC[C@H](OC(=O)CC(C)(C)CC(=O)O)C(C)(C)[C@@H]5CC[C@]43C)[C@@H]12` [Item 7] is above 68 µM. Regarding `CC(C)[C@@H]1CC[C@]2(C(=O)O)CC[C@]3(C)C(CCC4[C@@]5(C)CC[C@H](O)C(C)(C)C5CC[C@]43C)C12` (stereo partly drawn) [dihydrobetulinic acid], the EC50 in data set [4] is 900 nM. Turning to `C=C(C)[C@@H]1CC[C@]2(CO)CC[C@]3(C)[C@H](CC[C@@H]4[C@@]5(C)CC[C@H](O)C(C)(C)[C@@H]5CC[C@]43C)[C@@H]12` [Item 1, lup-20(29)-ene-3β,28-diol], the “activity against HIV-1” value in data set [2] is “weak activity”. With `C=C(C)[C@@H]1CC[C@]2(COC(=O)CC(C)(C)CC(=O)O)CC[C@]3(C)[C@H](CC[C@@H]4[C@@]5(C)CC[C@H](OC(=O)CC(C)(C)CC(=O)O)C(C)(C)[C@@H]5CC[C@]43C)[C@@H]12` [3,28-di-O-(3',3'-dimethylglutaryl)betulin], the concentration giving a half-maximal response (EC50) in data set [5] is 0.66 nM. On to “3-O-(3,3'-dimethylsuccinyl)betulinic acid [Item 3]”, for which, in data set [6], the concentration for a half-maximal effect (EC50) is 3.5 nM. On to `C=C(C)[C@@H]1CC[C@]2(C(=O)O)CC[C@]3(C)[C@H](CC[C@@H]4[C@@]5(C)CC[C@H](O)C(C)(C)[C@@H]5CC[C@]43C)[C@@H]12` [Item 2, (3β)-3-hydroxy-lup-20(29)-en-28-oic acid], for which the “activity against HIV-1” value in data set [2] is listed as “weak activity”. The concentration for a half-maximal effect (EC50) in data set [4] is 1600 nM. For `C=C(C)[C@@H]1CC[C@]2(COC(=O)C(C)(C)CC(=O)O)CC[C@]3(C)[C@H](CC[C@@H]4[C@@]5(C)CC[C@H](OC(=O)CC(C)(C)C(=O)O)C(C)(C)[C@@H]5CC[C@]43C)[C@@H]12` [3-O-(3',3'-dimethylsuccinyl)-28-O-(2",2"-dimethylsuccinyl)betulin], in data set [5], the concentration giving a half-maximal response (EC50) is 0.87 nM. In turn, `C=C(C)[C@@H]1CC[C@]2(C(=O)O)CC[C@]3(C)[C@H](CC[C@@H]4[C@@]5(C)CC[C@H](OC(=O)CC(C)(C)C(=O)O)C(C)(C)[C@@H]5CC[C@]43C)[C@@H]12` [Item 3] showed an IC50 in data set [3] (Human immunodeficiency virus 1, CEM-T4) of 30 nM. In data set [1], `CCOP(=O)(C=C(C)[C@@H]1CC[C@]2(C(=O)O)CC[C@]3(C)[C@H](CC[C@@H]4[C@@]5(C)CC[C@H](OC(=O)CC(C)(C)C(=O)O)C(C)(C)[C@@H]5CC[C@]43C)[C@@H]12)OCC` [Item 9] yielded a half-maximal cytotoxic concentration (CC50) above 69 µM.

With `C=C(C)[C@@H]1CC[C@]2(C(=O)O)CC[C@]3(C)[C@H](CC[C@@H]4[C@@]5(C)CC[C@H](O)C(C)(C)[C@@H]5CC[C@]43C)[C@@H]12` [Item 2], in data set [1], the CC50 turned out to be 5 µM.
